Paper PMC9000012, “Amorphous Inclusion Complexes: Molecular Interactions of Hesperidin and Hesperetin with HP-Β-CD and Their Biological Effects” (International Journal of Molecular Sciences, 2022)
Converted amounts (≈) assume the structure as drawn. “Also recorded” adds a separate entry of the source. Read-outs that look alike come from different tables or passages of the source.

Assays:
[1] = set-up: method as in doi:10.1016/j.lwt.2019.03.059; conditions: cited from earlier work
BChE = target: T1, BChE (Homo sapiens, UniProt P06276); assay: Butyrylcholinesterase (BChE) inhibition assay; type: biochemical
T1 construct: purchased Sigma Aldrich, Germany
Protocol: (§1) To assess the activity of Hed, Het, and systems, the spectrometric method according to the outlined procedure was applied. A Multiskan GO 1510 (Thermo Fisher Scientific, Vantaa, Finland) plate reader was used for measurements of 96-well plates of the maximum volume of 300 μL. The hydrolysis of acetylthiocholine/butyrylthiocholine caused a color change. The absorbance of the enzymes was measured at a wavelength of 412 nm, 10 min after pipetting on a microplate. The reaction mixture containing 0.1 mL of 0.3 mM 5,5-dithio-bis-(2-nitrobenzoic acid) (DTNB, Sigma Aldrich, Germany), 10 mM NaCl and 2 mM MgCl2·6H2O solution, 0.575 mL 50 mM Tris-HCl buffer (pH = 8.0), 25 µL of 0.28 units/mL AChE/BChE (Sigma Aldrich, Germany), and 0.2 mL of the tested system was measured at a wavelength of 405 nm and at a temperature of 22 °C. The measurement was conducted after 20 min (BChE) or 60 min (AChE) after adding all ingredients into a microplate. The blank sample contained Tris-HCl buffer instead of the tested compounds. All samples were analyzed in six independent replicates. The inhibitory activity of each enzyme was calculated with the use of following equation: Inhibition ability (%)=100−Ap−Abp×100/Ak−Ab where Ak is absorbance of control, Ab is the blank of the control, Ap is the absorbance of the sample, and Abp is the blank of the sample.

[2] = PAMPA BBB permeability assay; type: in vitro ADME; conditions: for Papp at 4 h: PAMPA
Protocol: (§2) In vitro gastrointestinal (GIT) and blood–brain barrier (BBB) permeability was studied using the PAMPA (Parallel Artificial Membrane Permeability Assay) model. The sandwich consists of two 96-well microfilter plates. The PAMPA system contains two chambers: the donor at the bottom and the acceptor chamber at the top. The chambers are separated by a 120 μm thick microfilter disc coated with a 20% (w/v) dodecane solution of a lecithin mixture (Pion, Inc.). The analyzed samples were prepared by dissolving an excess amount of pure compound and systems in water. In addition, the pure compound was dissolved in DMSO. The donor solution was adjusted to pH ≈ 6.8 for GIT application and to pH ≈ 7.4 for BBB application using 0.5 M NaOH. The plates were combined and then incubated for 4 h for both models in a humidity-saturated atmosphere with the temperature set at 37 °C. The apparent permeability coefficient (Papp) was calculated according to the following equation: Papp=−ln(1−CA/Cequilibrium)/S×(1/VD+1/VA)×t where VD is donor volume; VA is acceptor volume; Cequilibrium is equilibrium concentration, Cequilibrium=CD×VD+CA×VA/VD+VA; S is membrane area; and t is incubation time (in seconds).

physchem = type: physicochemical; conditions: for improvement in solubility: by amorphous inclusion complexes with HP-β-CD; for solubility at 24 h: thermodynamic from solid
Protocol: Concentrations of Hed and Het during solubility, dissolution rate, and permeability studies were measured by high-performance liquid chromatography with the DAD detector (HPLC-DAD). In this study, a Shimadzu Nexera (Shimadzu Corp., Kyoto, Japan) equipped with SCL-40 system controller; DGU-403 degassing unit; LC-40B XR solvent delivery module; SIL-40C XR auto sampler; CTO-40C column oven; SPD-M40 photo diode array detector, was used. For the stationary phase, a Dr. Maisch ReproSil-Pur Basic-C18 100 Å column, 5 µm particle size, 250 × 4.60 mm (Dr. Maisch, Ammerbuch-Entringen, Germany), was used. The mobile phase was methanol/0.1% acetic acid (65:35 v/v). The mobile phase was vacuum-filtered through a 0.45 µm nylon filter (Phenomenex, CA, USA). The experimental conditions were as follows: 0.9 mL·min^−1 flow rate, wavelength 280 nm for Hed and 288 nm for Het, and the column temperature at 30 °C. The injection volume differed depending on the assay. […] The method duration time was 10 min.
A total of 0.1 M HCl was obtained from the analytical weighed amount in accordance with the BASF SE recommendations. Phosphate buffer at pH 6.8 was prepared according to the following description: in a 1000 mL volumetric flask, we placed 250 mL of 0.2 N potassium dihydrogen phosphate solution, then added 112 mL of 0.2 N sodium hydroxide solution and filled the mixture up to 1000 mL with distilled water. High-quality pure water was prepared using a Direct-Q 3 UV purification system (Millipore, Molsheim, France, model Exil SA 67120).
An excess number of obtained systems and physical mixtures was placed in a 10 mL glass tube; then, 5.0 mL of medium (water, HCl 0.1 N or phosphate buffer (pH 6.8)) was added. All samples were mixed using a vortex mixer for 30 s and left at room temperature for 24 h. The obtained solutions were filtered through a 0.2 μm nylon membrane filter (Sigma-Aldrich, St. Louis, MO, USA) and analyzed for Hed and Het content using the developed and validated the HPLC method. The analysis was performed in triplicate.

[3] = PAMPA GIT permeability assay; type: in vitro ADME
Protocol: as §2

AChE = target: T2, AChE (Homo sapiens, UniProt P22303); assay: Acetylcholinesterase (AChE) inhibition assay; type: biochemical
T2 construct: purchased Sigma Aldrich, Germany
Protocol: as §1

T1 sequence (P06276 29-602, species assumed): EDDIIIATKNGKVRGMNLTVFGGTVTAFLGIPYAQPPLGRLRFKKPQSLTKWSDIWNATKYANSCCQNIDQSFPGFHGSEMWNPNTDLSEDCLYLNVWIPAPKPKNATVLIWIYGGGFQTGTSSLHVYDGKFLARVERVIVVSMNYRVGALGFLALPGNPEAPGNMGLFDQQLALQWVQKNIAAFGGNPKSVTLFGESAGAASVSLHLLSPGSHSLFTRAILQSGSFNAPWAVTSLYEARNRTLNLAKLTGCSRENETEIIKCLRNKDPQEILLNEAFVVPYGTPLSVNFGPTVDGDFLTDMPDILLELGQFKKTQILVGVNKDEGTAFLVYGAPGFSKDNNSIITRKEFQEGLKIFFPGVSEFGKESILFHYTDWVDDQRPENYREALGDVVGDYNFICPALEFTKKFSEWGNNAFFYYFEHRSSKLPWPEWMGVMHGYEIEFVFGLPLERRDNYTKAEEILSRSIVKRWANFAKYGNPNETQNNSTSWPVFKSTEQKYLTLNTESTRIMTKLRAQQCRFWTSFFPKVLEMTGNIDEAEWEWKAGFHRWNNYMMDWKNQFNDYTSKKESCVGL
T2 sequence (P22303 32-614): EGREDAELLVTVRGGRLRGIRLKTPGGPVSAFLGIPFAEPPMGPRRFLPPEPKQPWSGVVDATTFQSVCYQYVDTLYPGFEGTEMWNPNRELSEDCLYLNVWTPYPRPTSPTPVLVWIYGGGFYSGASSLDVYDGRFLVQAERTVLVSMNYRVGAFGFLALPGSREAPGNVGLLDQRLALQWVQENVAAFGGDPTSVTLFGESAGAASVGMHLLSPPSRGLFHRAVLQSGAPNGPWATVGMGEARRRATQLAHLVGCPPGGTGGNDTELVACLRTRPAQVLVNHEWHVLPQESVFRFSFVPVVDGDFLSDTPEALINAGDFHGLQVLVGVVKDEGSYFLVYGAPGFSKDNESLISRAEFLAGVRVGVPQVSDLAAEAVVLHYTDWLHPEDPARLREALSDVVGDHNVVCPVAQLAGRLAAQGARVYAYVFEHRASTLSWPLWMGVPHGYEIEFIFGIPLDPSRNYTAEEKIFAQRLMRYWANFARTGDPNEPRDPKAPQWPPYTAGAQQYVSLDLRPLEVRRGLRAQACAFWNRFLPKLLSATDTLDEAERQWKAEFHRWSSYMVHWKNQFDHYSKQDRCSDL

COc1ccc([C@@H]2CC(=O)c3c(O)cc(O)cc3O2)cc1O [Het, hesperetin]
improved solubility ([1]; Het complex with HP-β-CD): 467 fold | improved solubility ([1]; Het complex with β-CD): 30 fold | BChE inhibition (BChE): 12.96 ± 3.15% | Papp at 4 h ([2]; compound dissolved in DMSO, donor pH ≈ 7.4, 4 h, 37 °C, read-out: PAMPA BBB Papp): 5.58 ×10⁻⁶ cm/s | BBB PAMPA permeability, result in words ([2]; passive diffusion): easily able to pass this biological barrier; also recorded: crosses the blood–brain barrier | improvement in solubility (physchem): > 2000 times | solubility at 24 h (physchem; pH 6.8, aqueous buffer): 15 ± 0.2 µg/mL (≈ 49.6 µM) | solubility at 24 h (physchem; simulated gastric fluid): 6 ± 0.1 µg/mL (≈ 19.8 µM) | solubility at 24 h (physchem; water): 8 ± 0.1 µg/mL (≈ 26.5 µM) | Papp at 4 h ([3]; PAMPA, compound dissolved in DMSO, donor pH ≈ 6.8, 4 h, 37 °C, read-out: PAMPA GIT Papp): 9.61 ×10⁻⁶ cm/s | GIT PAMPA permeability, result in words ([3]; passive diffusion): readily absorbed; also recorded: well absorbed

COc1ccc([C@@H]2CC(=O)c3c(O)cc(O[C@@H]4O[C@H](CO[C@@H]5O[C@@H](C)[C@H](O)[C@@H](O)[C@H]5O)[C@@H](O)[C@H](O)[C@H]4O)cc3O2)cc1O [Hed, hesperidin]
BChE inhibition (BChE): 13.86 ± 1.62% | AChE inhibition (AChE): 9.24 ± 0.81% | Papp at 4 h ([2]; pH 7.4): 0.558 ×10⁻⁶ cm/s | improvement in solubility (physchem): over 1000 times | solubility at 24 h (physchem; pH 6.8, aqueous buffer): 9 ± 2 µg/mL (≈ 14.7 µM) | solubility at 24 h (physchem; simulated gastric fluid): 8 ± 3 µg/mL (≈ 13.1 µM) | solubility at 24 h (physchem; water): 9 ± 1 µg/mL (≈ 14.7 µM) | GIT PAMPA permeability, result in words ([3]; PAMPA): poorly absorbed | Papp at 4 h ([3]; PAMPA, pH 6.8): 0.0554 ×10⁻⁶ cm/s
